Ten compounds from patent US7943770B2, “Fused quinoline derivative and use thereof” (Takeda Pharmaceutical Company Limited, priority 2004, dated 2011) can be followed below.

For orientation: IC50 means the concentration that gives 50% inhibition. A low value points to greater potency in that assay.

Where only a bound is given, the exact number is not on record here.

For this assay, the target named is T1, hNK2 receptor (Homo sapiens, UniProt P21452).
T1 construct: host or cells: CHO cells
T1 sequence (P21452 1-398): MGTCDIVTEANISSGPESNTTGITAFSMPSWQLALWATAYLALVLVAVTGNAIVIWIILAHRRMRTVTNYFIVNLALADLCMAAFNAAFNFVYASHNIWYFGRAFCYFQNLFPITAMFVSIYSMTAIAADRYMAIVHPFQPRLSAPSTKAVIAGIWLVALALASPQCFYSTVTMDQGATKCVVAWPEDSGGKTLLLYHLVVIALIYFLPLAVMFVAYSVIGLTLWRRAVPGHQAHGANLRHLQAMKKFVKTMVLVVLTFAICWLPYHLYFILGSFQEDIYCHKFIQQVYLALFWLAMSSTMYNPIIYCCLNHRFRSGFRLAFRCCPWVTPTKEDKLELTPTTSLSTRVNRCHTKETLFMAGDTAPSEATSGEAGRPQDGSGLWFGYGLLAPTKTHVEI
Briefly: Radio-ligand ([125I]-NKA) receptor binding inhibitory activity using membrane fraction of hNK2 receptor-expressing CHO cell. Conditions: membrane fraction of hNK2 receptor-expressing CHO cells, 25° C., 30 min. The method in brief:
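Inhibition of [125I]-NKA binding ([…] solution added) measured after 30 min at 25 °C using hNK2-CHO membrane fraction (20 μg/mL suspension) in pH 7.4 Tris buffer containing MnCl2, BSA and protease inhibitors. Filter-bound counts read; activity calculated as fraction of specific binding, non-specific defined with unlabeled NKA.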
The compound `O=C(Nc1ccc(F)cc1)N[C@@H]1CCCC[C@@H]1C(=O)N1CC[C@@H]2[C@H](c3ccccc3)Nc3ccccc3[C@@H]21` [Example 139, N-(4-Fluorophenyl)-N′-((1R,2S)-2-{[(3aR,4R,9bR)-4-phenyl-2,3,3a,4,5,9b-hexahydro-1H-pyrrolo[3,2-c]quinolin-1-yl]carbonyl}cyclohexyl)urea] registered an IC50 of less than 0.001 µM. For `O=C(Nc1ccc(C(F)(F)F)cc1)N[C@@H]1CCCC[C@@H]1C(=O)N1CC[C@@H]2[C@H](c3ccccc3)Nc3ccccc3[C@@H]21` [Example 140, N-((1R,2S)-2-{[(3aR,4R,9bR)-4-Phenyl-2,3,3a,4,5,9b-hexahydro-1H-pyrrolo[3,2-c]quinolin-1-yl]carbonyl}cyclohexyl)-N′-[4-(trifluoromethyl)phenyl]urea] the value was less than 0.01 µM; for `O=C(Nc1cccc(Cl)c1)N[C@@H]1CCCC[C@@H]1C(=O)N1CC[C@@H]2[C@H](c3ccccc3)Nc3ccccc3[C@@H]21` [Example 141, N-(3-Chlorophenyl)-N′-((1R,2S)-2-{[(3aR,4R,9bR)-4-phenyl-2,3,3a,4,5,9b-hexahydro-1H-pyrrolo[3,2-c]quinolin-1-yl]carbonyl}cyclohexyl)urea], less than 0.01 µM. As to `O=C(NCc1ccccc1)N[C@@H]1CCCC[C@@H]1C(=O)N1CC[C@@H]2[C@H](c3ccccc3)Nc3ccccc3[C@@H]21` [Example 143, N-Benzyl-N′-((1R,2S)-2-{[(3aR,4R,9bR)-4-phenyl-2,3,3a,4,5,9b-hexahydro-1H-pyrrolo[3,2-c]quinolin-1-yl]carbonyl}cyclohexyl)urea], the IC50 was less than 0.01 µM.

As for `COc1ccc(CNC(=O)N[C@@H]2CCCC[C@@H]2C(=O)N2CC[C@@H]3[C@H](c4ccccc4)Nc4ccccc4[C@@H]32)cc1` [Example 144, N-(4-Methoxybenzyl)-N′-((1R,2S)-2-{[(3aR,4R,9bR)-4-phenyl-2,3,3a,4,5,9b-hexahydro-1H-pyrrolo[3,2-c]quinolin-1-yl]carbonyl}cyclohexyl)urea], the 50% inhibitory concentration (IC50) is less than 0.01 µM.

On to `O=C(NCc1ccc(F)cc1)N[C@@H]1CCCC[C@@H]1C(=O)N1CC[C@@H]2[C@H](c3ccccc3)Nc3ccccc3[C@@H]21` [Example 145, N-(4-Fluorobenzyl)-N′-((1R,2S)-2-{[(3aR,4R,9bR)-4-phenyl-2,3,3a,4,5,9b-hexahydro-1H-pyrrolo[3,2-c]quinolin-1-yl]carbonyl}cyclohexyl)urea], for which the half-inhibitory concentration (IC50) was less than 0.01 µM. Regarding `O=C(NCCc1ccccc1)N[C@@H]1CCCC[C@@H]1C(=O)N1CC[C@@H]2[C@H](c3ccccc3)Nc3ccccc3[C@@H]21` [Example 146, N-(2-Phenylethyl)-N′-((1R,2S)-2-{[(3aR,4R,9bR)-4-phenyl-2,3,3a,4,5,9b-hexahydro-1H-pyrrolo[3,2-c]quinolin-1-yl]carbonyl}cyclohexyl)urea], the IC50 is less than 0.01 µM. In turn, `N#Cc1ccc(NC(=O)N[C@@H]2CCCC[C@@H]2C(=O)N2CC[C@@H]3[C@H](c4ccccc4)Nc4ccccc4[C@@H]32)cc1` [Example 147, N-(4-Cyanophenyl)-N′-((1R,2S)-2-{[(3aR,4R,9bR)-4-phenyl-2,3,3a,4,5,9b-hexahydro-1H-pyrrolo[3,2-c]quinolin-1-yl]carbonyl}cyclohexyl)urea] yielded an IC50 of less than 0.01 µM. Consider `O=C(Nc1ccc2c(c1)OCO2)N[C@@H]1CCCC[C@@H]1C(=O)N1CC[C@@H]2[C@H](c3ccccc3)Nc3ccccc3[C@@H]21` [Example 148, N-1,3-Benzodioxol-5-yl-N′-((1R,2S)-2-{[(3aR,4R,9bR)-4-phenyl-2,3,3a,4,5,9b-hexahydro-1H-pyrrolo[3,2-c]quinolin-1-yl]carbonyl}cyclohexyl)urea], for which the IC50 was less than 0.001 µM.

`O=C(NC1CCCCC1)N[C@@H]1CCCC[C@@H]1C(=O)N1CC[C@@H]2[C@H](c3ccccc3)Nc3ccccc3[C@@H]21` [Example 149, N-Cyclohexyl-N′-((1R,2S)-2-{[(3aR,4R,9bR)-4-phenyl-2,3,3a,4,5,9b-hexahydro-1H-pyrrolo[3,2-c]quinolin-1-yl]carbonyl}cyclohexyl)urea]: the concentration for half-maximal inhibition (IC50) is less than 0.01 µM.
